Experimental data: patent US20150299250A1, “MACROCYCLIC COMPOUNDS AND USES THEREOF” (ADELAIDE RESEARCH & INNOVATION PTY LTD, priority 2012, published 2015)

Assays:
[1] = target: bovine α-chymotrypsin (bCT) (Bos taurus, UniProt P00766); test: Bovine chymotrypsin spectrophotometric assay (Suc-Ala-Ala-Pro-Phe-pNA); assay type: biochemical
Method: The activity of bCT was assayed spectrophotometrically with a Varian Cary 5000 UV-VIS-NIR spectrophotometer equipped with a thermostated multicell holder at 25.0±0.1° C. Assay buffer was: Tris-HCl (77 mM), CaCl2 (20 mM), pH 7.8 (pH optimum of α-chymotrypsin {3}). A solution of bCT (21.9 μg/mL) in aq HCl (1 mM) was prepared daily by a 1:40 dilution of a stock solution (874 μg/mL) in aq HCl (1 mM) and kept at 0° C. A 1:100 dilution in ice-cold aq HCl (1 mM) was prepared immediately before starting each measurement. Stock solutions of the substrate Suc-Ala-Ala-Pro-Phe-pNA (10 mM) and all inhibitors (5 mM) were freshly prepared in DMSO and stored at r.t. All compounds were analyzed at five different inhibitor concentrations, [I]. Progress curves were monitored at 405 nm over 6 min and characterized by a linear steady state turnover of the substrate.
The Inhibition studies were performed in the presence of 6% v/v DMSO in a volume of 1 mL containing 0.011 μg/mL bCT, different concentrations of Suc-Ala-Ala-Pro-Phe-pNA (10-100 μM) and inhibitor. Into a cuvette containing 890 μL assay buffer, 10 μL of substrate solution (1-10 mM), inhibitor stock, and DMSO were added to give a total volume of […]. After thoroughly mixing the contents of the cuvette, the enzymatic reaction was initiated by adding 50 μL of bCT solution. Uninhibited enzyme activity was determined by adding DMSO instead of inhibitor solution. Non-enzymatic hydrolysis of Suc-Ala-Ala-Pro-Phe-pNA was analyzed by adding DMSO and 1 mM aqueous HCl instead of inhibitor and enzyme solution, respectively, and found to be negligible. The rate of enzyme-catalyzed hydrolysis of 100 μM substrate was determined without inhibitor in each experiment and was set to 100%. Ki values of inhibitors were determined graphically according to Dixon {4} using mean values of percentage rates obtained in three separate experiments at two different substrate concentrations, [S].

[2] = target: T1, 20S proteasome chymotrypsin-like (CT-L) activity (Oryctolagus cuniculus, UniProt G1T4Q9); test: In vitro proteasome activity assay, CT-L (Suc-LLVY-AMC); assay type: biochemical, rabbit; conditions: purified 20S proteasome
T1 sequence (G1T4Q9 1-263): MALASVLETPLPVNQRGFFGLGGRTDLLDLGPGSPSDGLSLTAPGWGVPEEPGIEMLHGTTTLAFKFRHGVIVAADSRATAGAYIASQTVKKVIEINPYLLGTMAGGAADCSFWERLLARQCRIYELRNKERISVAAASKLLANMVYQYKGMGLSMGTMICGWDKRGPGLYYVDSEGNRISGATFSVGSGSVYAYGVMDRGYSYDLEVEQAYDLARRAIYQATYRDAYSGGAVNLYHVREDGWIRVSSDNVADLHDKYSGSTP
Method: (§1) The assays were performed in vitro using purified 20S proteasome/inhibitor mixtures, with the activity of each subunit of the proteasome assessed upon incubation with its respective target peptide.
(§2) Purified rabbit 20S proteasome and fluorogenic CT-L substrate (Suc-LLVY-AMC) were purchased from Boston Biochem (Cambridge, Mass., USA). The T-L and CP-L fluorogenic substrates (Ac-RLR-AMC and Z-nLPnLD-AMC) were purchased from Enzo Life Sciences (Farmingdale, N.Y., USA). The 20S proteasome was diluted to 0.2 μg/μL in 20S proteasome buffer (50 mM HEPES pH 7.6, 150 mM NaCl and 1 mM DDT) and stored at −80° C. Purified 20S proteasome (8 ng) was pre-incubated with the indicated concentrations of inhibitors for 15 minutes and subsequently added to the AMC-labeled substrate peptide (50 μM) in assay buffer (25 mM HEPES, pH 7.5, 0.5 mM EDTA, 0.05% NP-40, and 0.001% SDS (w/v)) at 37° C. for 2 hours.

[3] = target: T2, 20S proteasome T-L activity (Oryctolagus cuniculus, UniProt G1SWK8); test: In vitro proteasome activity assay, T-L (Ac-RLR-AMC); assay type: biochemical, rabbit; conditions: for IC50: purified 20S proteasome, highest concentration tested 25,000 nM
T2 construct: purchased Boston Biochem
T2 sequence (G1SWK8 1-271): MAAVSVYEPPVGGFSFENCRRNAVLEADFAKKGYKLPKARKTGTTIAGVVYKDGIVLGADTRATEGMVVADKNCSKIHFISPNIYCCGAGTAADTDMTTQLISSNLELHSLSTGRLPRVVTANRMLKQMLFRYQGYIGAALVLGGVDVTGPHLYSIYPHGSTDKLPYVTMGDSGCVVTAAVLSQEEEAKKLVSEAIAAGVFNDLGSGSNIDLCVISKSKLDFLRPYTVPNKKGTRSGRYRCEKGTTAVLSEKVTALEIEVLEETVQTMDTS
Method: as §1, §2

[4] = target: T3, 20S proteasome CP-L activity (Oryctolagus cuniculus, UniProt A0A5F9DQW2); test: In vitro proteasome activity assay, CP-L (Z-nLPnLD-AMC); assay type: biochemical, rabbit; conditions: purified 20S proteasome; highest concentration tested 25,000 nM
T3 construct: Purified rabbit 20S proteasome
T3 sequence (A0A5F9DQW2 1-212): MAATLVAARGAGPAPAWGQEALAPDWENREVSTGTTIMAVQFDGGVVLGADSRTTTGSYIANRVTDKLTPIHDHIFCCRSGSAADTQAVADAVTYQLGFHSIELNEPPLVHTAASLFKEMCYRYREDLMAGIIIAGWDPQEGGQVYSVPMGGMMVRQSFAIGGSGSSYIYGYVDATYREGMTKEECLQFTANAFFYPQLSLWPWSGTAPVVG
Method: We initially determined the ability of the novel tripeptide MG132 analogues 1-6 and the macrocycles 3a and 4a to inhibit the three separate protease activities of the 20S proteasome (CT-L, -T-L and CP-L). The assays were performed in vitro using purified 20S proteasome/inhibitor mixtures, with the activity of each subunit of the proteasome assessed upon incubation with its respective target peptide. […] In addition, there is no apparent clear-cut preference for the length of tether (compare compounds 1 to 4), while the introduction of an aryl group at P3 (as in 6) is well tolerated.
as §2, with “hours. Fluorescent substrate cleavage by the 20S proteasome was linear during this incubation timeframe (Supplementary Figure S4. Hydrolysed 7-amino-4-methylcoumarin (AMC) was subsequently detected with the FLUOstar OPTIMA microplatefluorometer at excitation/emission of 390/460 nm. The activity was estimated in relative fluorescence units and half of the maximal inhibitory activity of the proteasome is represented by IC50 values. A minimum of three biological replicates were performed for each data point.” for “hours.”

[5] = test system: WE-68 Ewing's sarcoma cells; test: Cell viability assay (7AAD, 48 hours), WE-68; assay type: cell-based; conditions: 48 hours exposure; read-out: Cancer cell lines IC50 (μM) WE-68
Method: (§3) Cell viability assays were performed as previously described. Briefly, cells were seeded in 96 well microtiterplates at a density of 3×10^4 cells per well in the presence of the indicated chemical. Cells were harvested 48 hours post-treatment, centrifuged at 1,300×g, washed in phosphate-buffered saline (PBS) and stained with 7AAD solution (2 μg/mL) (7-amino-actinomycin-D, Invitrogen, Carlsbad, Calif.) for 10 mins at room temperature. Viable cells were determined with the use of a FACS Calibur flow cytometer (Becton Dickinson Immunocytometry Systems), and analyzed with the use of FLOWJO (Tree Star, Inc) and GraphPad Prism (GraphPad Software Inc).
(§4) WE-68 and VH-64 Ewing's sarcoma cells were kindly supplied by F. van Valen (Department of Orthopaedic Surgery, Westfalische-Wilhelms-University, Germany).TC-252 and STA-ET-1 Ewing's sarcoma cells were kindly provided by G. Hamilton (Department of Surgery, University of Vienna, Austria) or P. Ambros (Children's Cancer Research Institute, St Anna Children's Hospital, Vienna, Austria). Primary human embryonic fibroblasts or primary human osteoblasts were collected from the Women's and Children's Hospital (North Adelaide, South Australia, Australia) or Royal Adelaide Hospital with patient consent. Mouse Embryonic Fibroblasts (MEFs) and its p53-null derivative were kindly supplied by Guillermina Lozano (Department of Genetics, Anderson Cancer Centre, University of Texas, Houston, Tex., USA). WE-68 cell lines were grown in RPMI-1640 media, whilst human embryonic fibroblasts and MEFs were grown in Dulbecco's Modified Eagle's Medium (DMEM). Media was supplemented with 10% FCS, 1% PSG and 10 mM HEPES. All cells were maintained at 37° C. in a humidified atmosphere of 5% CO2.

[6] = test system: VH-64 Ewing's sarcoma cells; test: Cell viability assay (7AAD, 48 hours), VH-64; assay type: cell-based; conditions: 48 hours exposure; read-out: Cancer cell lines IC50 (μM) VH-64
Method: as §3, §4

[7] = test system: STA-ET-1 Ewing's sarcoma cells; test: Cell viability assay (7AAD, 48 hours), STA-ET-1; assay type: cell-based; conditions: 48 hours exposure; read-out: Cancer cell lines IC50 (μM) STA-ET-1
Method: as §3, §4

[8] = test system: TC-252 Ewing's sarcoma cells; test: Cell viability assay (7AAD, 48 hours), TC-252; assay type: cell-based; conditions: 48 hours exposure; read-out: Cancer cell lines IC50 (μM) TC-252
Method: as §3, §4

[9] = test system: primary human embryonic fibroblasts; test: Cell viability assay (7AAD, 48 hours), normal fibroblasts; assay type: cell-based; conditions: Fibroblast, 48 hours exposure, read-out: Normal cell lines IC50 (μM) Fibroblasts
Method: as §3, §4

[10] = test system: primary human osteoblasts; test: Cell viability assay (7AAD, 48 hours), normal osteoblasts; assay type: cell-based; conditions: Osteoblast, 48 hours exposure, read-out: Normal cell lines IC50 (μM) Osteoblasts
Method: as §3, §4

[11] = test system: panel of sarcoma cell lines (WE-68, VH-64, STA-ET-1, TC-252); test: Cell viability assay, panel of four sarcoma cell lines (average); assay type: cell-based; conditions: for IC50: average of four sarcoma cell lines, read-out: Average IC50 for cancer cell lines
Method: as §3, §4

[12] = test system: normal cell lines (fibroblasts, osteoblasts); test: Cell viability assay, normal cell lines (average); assay type: cell-based; conditions: Homo sapiens; average of fibroblasts and osteoblasts
Method: as §3, §4

| Compound | Ki [1] [µM] | IC50 [3] [nM] | IC50 [4] [nM] | IC50 [5] [µM] | IC50 [6] [µM] | IC50 [7] [µM] | IC50 [8] [µM] | IC50 [9] [µM] | IC50 [10] [µM] | IC50 [11] [µM] | other results |
| --- | --- | --- | --- | --- | --- | --- | --- | --- | --- | --- | --- |
| O=CC(Cc1ccccc1)NC(=O)C1Cc2ccc(cc2)OCCCCOc2ccc(cc2)CCC(=O)c2ccc([nH]2)C(=O)N1 (centres unmarked) [Compound 3d] | 0.033 ± 0.005 | – | – | – | – | – | – | – | – | – | – |
| CC(C)CC(C=O)NC(=O)C1Cc2ccc(cc2)OCCCCOc2ccc(cc2)CCC(=O)c2ccc([nH]2)C(=O)N1 (centres unmarked) [Compound 3c] | 1.92 ± 0.167 | – | – | – | – | – | – | – | – | – | – |
| CC(C)CC1NC(=O)C(NC(=O)OCc2ccccc2)CCCCn2cc(nn2)COc2ccc(cc2)CC(C=O)NC1=O (centres unmarked) [Compound 4a] | – | > 25000 | > 25000 | 18 | > 50 | 37.6 | 39.4 | > 50 | > 50 | 31.7 | IC50 [2]: 250 nM |
| CC(C)C[C@H](NC(=O)[C@H](Cc1ccccc1)NC(=O)c1cnccn1)B(O)O [Bortezomib, reference compound] | – | > 25000 | 438 | 0.02 | 0.04 | < 0.0008 | 0.01 | 0.02 | 0.28 | 0.02 | activation of T-L activity [3]: ^fBortezomib activated T-L activity by 32%.; Therapeutic window ([11]; fold change in potency (IC50) against cancer cell line versus normal cell line): ×9.1; IC50 [12]: 0.15 µM |
| O=C[C@H](Cc1ccccc1)NC(=O)[C@@H]1CCCCCCCCCCCC(=O)c2ccc([nH]2)C(=O)N1 [Compound 1d, (S)-2,16-dioxo-N—((S)-1-oxo-3-phenylpropan-2-yl)-3,20-diazabicyclo[15.2.1]icosa-1(19),17-diene-4-carboxamide] | 2.52 ± 0.248 | – | – | – | – | – | – | – | – | – | – |
| O=CC(Cc1ccccc1)NC(=O)C1CCCCOc2ccc(cc2)CCC(=O)c2ccc([nH]2)C(=O)N1 (centres unmarked) [Compound 2d] | 0.431 ± 0.005 | – | – | – | – | – | – | – | – | – | – |
